Where two headings read alike, the source gives them in different places.
Experiments:
Format in all cases: cell-based
[1] = biological target: T1, human 5-HT2A receptor (Homo sapiens, UniProt P28223); assay: 5HT2A Antagonism Assay (Euroscreen FAST-05051), IP-One HTRF
T1 construct: host or cells: CHO-K1
Description: 5HT2A Antagonism Assay Protocol (Euroscreen FAST-05051)
CHO-K1 cells expressing the human 5-HT2A receptor grown to mid-log phase in culture media without antibiotics, were detached with PBS-EDTA, centrifuged, and resuspended in the IP-One Gq kit (Cisbio Bioassays, 62IPAPEC) stimulation buffer.
For antagonist testing in a 384 well plate: 5 μl of cells (20,000 cells) were mixed with 5 μl of a mix of test compound and reference agonist (for a final assay concentration corresponding to its EC80) diluted in stimulation buffer. The plate was incubated for 60 minutes at 37° C. in a humidified atmosphere of 95% air with 5% CO2, then 5 μL of IP1-d2 and anti-IP1 cryptate detection reagents were added to each well, the plates were incubated for about 1 hour at about room temperature. Fluorescence ratios are measured according to the manufacturer's specification (IP-One Gq kit (Cisbio Bioassays, 62IPAPEC).
Dose response curves were performed in parallel with reference compounds (e.g., α-methyl-5-HT. Compounds were tested at the following nanomolar concentrations, in duplicate: 0.3 nM, 1 nM, 3 nM, 10 nM, 30 nM, 100 nM, 300 nM, 1,000 nM, 3,000 nM, and 10,000 nM

[2] = biological target: T2, human 5-HT7 receptor (Homo sapiens, UniProt P34969); assay: 5HT7 Antagonism Assay (Euroscreen FAST-0499C), cAMP HTRF; settings: CHO-K1 cells expressing human 5-HT7, reference agonist at EC80, cAMP HTRF
T2 construct: host or cells: CHO-K1
Description: 5HT7 Antagonism Assay Protocol (Euroscreen FAST-0499C)
CHO-K1 cells expressing the human 5-HT7 receptor, grown prior to the test in media without antibiotic, were detached by gentle flushing with PBS-EDTA (5 mM EDTA), recovered by centrifugation and resuspended in assay buffer (Krebs-Ringer HEPES buffer: 5 mM KCl, 1.25 mM MgSO4, 124 mM NaCl, 25 mM HEPES, 13.3 mM Glucose, 1.25 mM KH2PO4, 1.45 mM CaCl2), 0.5 g/l BSA, supplemented with 1 mM IBMX).
Dose response curves were performed in parallel with reference compounds (e.g., 5-carboxamidotryptamine (5-CT)).
For antagonist testing in a 384 well plate: 5 μl of cells (3000 cells) were mixed with 5 μl of a mix of test compound and reference agonist (for a final assay concentration corresponding to its EC80) diluted in assay buffer. The plates were then incubated for about 30 minutes at about room temperature. After addition of the lysis buffer containing cAMP-d2 and anti-cAMP cryptate detection reagents, plates were incubated for about 1 hour at about room temperature, and fluorescence ratios were measured according to the manufacturer's specifications (HTRF kit: cAMP Gs dynamic kit, Cisbio Bioassays, 62AM4PEJ).
(§1) Compounds were tested at the following nanomolar concentrations, in duplicate: 0.3 nM, 1 nM, 3 nM, 10 nM, 30 nM, 100 nM, 300 nM, 1,000 nM, 3,000 nM, and 10,000 nM.

[3] = biological target: T3, human TAAR1 receptors (Homo sapiens, UniProt Q96RJ0); assay: TAAR1 Agonism Assay: cAMP HTRF assay for Gs coupled receptor TAAR1 (Euroscreen FAST-0987C); settings: CHO-K1 cells expressing human TAAR1, cAMP HTRF
T3 construct: host or cells: CHO-K1
T3 sequence (Q96RJ0 1-339): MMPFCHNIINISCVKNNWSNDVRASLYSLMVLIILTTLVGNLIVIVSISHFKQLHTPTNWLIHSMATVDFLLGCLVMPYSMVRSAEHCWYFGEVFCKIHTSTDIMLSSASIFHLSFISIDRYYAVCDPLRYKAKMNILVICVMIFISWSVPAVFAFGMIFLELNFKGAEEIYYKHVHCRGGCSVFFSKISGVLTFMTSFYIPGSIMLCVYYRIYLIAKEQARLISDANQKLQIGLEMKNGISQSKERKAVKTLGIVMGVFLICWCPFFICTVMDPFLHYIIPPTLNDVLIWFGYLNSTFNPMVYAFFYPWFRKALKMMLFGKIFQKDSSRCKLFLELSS
Description: Dose response curves were performed in parallel with the reference compound, tyramine.
For the TAAR1 agonist test (performed in a 384 well plate): 5 μl of cells (about 3,000 cells) were mixed with 5 μl of the test compound diluted in assay buffer and then incubated for about 30 minutes at about room temperature. After addition of the lysis buffer containing cAMP-d2 and anti-cAMP cryptate detection reagents, plates were incubated for about a 1-hour incubation at about room temperature, and fluorescence ratios were measured according to the manufacturer specifications, with the HTRF (Homogeneous Time Resolved Fluorescence) kit (cAMP Gs dynamic kit, Cisbio Bioassays, 62AM4PEJ).
as §1

[4] = 5-HT2A (IC50), CHO-K1 cells expressing human 5-HT2A, reference agonist at EC80, IP-One
[5] = CHO-K1 cells expressing human 5-HT2A, reference agonist at EC80, IP-One, read-out: 5-HT2A (IC50)
[6] = read-out: 5-HT2A (IC50), CHO-K1 cells expressing human 5-HT2A, reference agonist at EC80, IP-One

T1 sequence (P28223 whole entry): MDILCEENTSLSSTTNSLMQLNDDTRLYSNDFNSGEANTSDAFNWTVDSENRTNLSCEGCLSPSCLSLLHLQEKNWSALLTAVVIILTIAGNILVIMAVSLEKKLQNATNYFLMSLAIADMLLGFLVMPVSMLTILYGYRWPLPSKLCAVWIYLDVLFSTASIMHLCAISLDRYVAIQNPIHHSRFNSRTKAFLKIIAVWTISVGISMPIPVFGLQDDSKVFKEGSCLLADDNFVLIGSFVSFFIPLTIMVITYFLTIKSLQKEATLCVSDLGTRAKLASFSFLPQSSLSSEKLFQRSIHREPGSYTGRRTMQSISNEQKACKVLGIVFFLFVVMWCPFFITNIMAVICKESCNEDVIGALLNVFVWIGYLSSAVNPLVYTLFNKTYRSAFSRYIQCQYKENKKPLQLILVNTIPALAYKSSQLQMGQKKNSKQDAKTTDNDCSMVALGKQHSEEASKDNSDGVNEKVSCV
T2 sequence (P34969 whole entry): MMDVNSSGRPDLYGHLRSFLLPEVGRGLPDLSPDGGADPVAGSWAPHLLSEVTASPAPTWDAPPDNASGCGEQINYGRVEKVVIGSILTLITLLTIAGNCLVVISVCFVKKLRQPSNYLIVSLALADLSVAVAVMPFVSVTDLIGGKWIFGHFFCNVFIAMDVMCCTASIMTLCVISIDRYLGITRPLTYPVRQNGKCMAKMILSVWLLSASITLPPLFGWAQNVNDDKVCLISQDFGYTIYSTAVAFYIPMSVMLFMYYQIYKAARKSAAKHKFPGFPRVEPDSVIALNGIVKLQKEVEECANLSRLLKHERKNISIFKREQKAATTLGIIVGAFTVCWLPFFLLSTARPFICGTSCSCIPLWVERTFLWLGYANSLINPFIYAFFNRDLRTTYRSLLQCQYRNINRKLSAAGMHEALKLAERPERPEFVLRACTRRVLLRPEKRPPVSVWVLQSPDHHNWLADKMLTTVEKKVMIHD

Q: How did the IC50 [1, 4] turn out when `CNCC1Cc2ccccc2Oc2cccnc21` (single isomer, unassigned) [Compound 5, (S*)-1-(10,11-dihydrobenzo[6,7]oxepino[3,2-b]pyridin-11-yl)-N-methylmethanamine] was run?
A: < 1000 nM

Q: And the IC50 [2]?
A: < 1000 nM

Q: And the EC50 [3]?
A: < 1000 nM

Q: `CNC[C@@H]1Oc2ccccc2Oc2ccncc21` (single isomer, unassigned) [Compound 55, (R*)-1-(11H-benzo[2,3][1,4]dioxepino[6,5-c]pyridin-11-yl)-N-methylmethanamine] was tested. Which IC50 [1, 5] did it give?
A: > 10000 nM

Q: What about the IC50 [2] of the same compound?
A: ≥ 10000 nM

Q: What about the EC50 [3] of the same compound?
A: > 10000 nM

Q: `C[C@H]1c2ccccc2Oc2cccnc2[C@@H]1CN` (stereo in doubt) [Compound 115, ((10R*,11S*)-10-methyl-10,11-dihydrobenzo[6,7]oxepino[3,2-b]pyridin-11-yl)methanamine] was tested. Which IC50 [1, 4] did it give?
A: > 10000 nM

Q: What about the IC50 [2] of the same compound?
A: ≥ 10000 nM

Q: What about the EC50 [3] of the same compound?
A: 1000 to 10000 nM

Q: How did the IC50 [1, 4] turn out when `CNCC1Cc2c(Cl)cccc2Oc2cccnc21` (single isomer, unassigned) [Compound 147, (R*)-(9-chloro-10,11-dihydrobenzo[6,7]oxepino[3,2-b]pyridin-11-yl)-N-methylmethanamine] was run?
A: < 1000 nM

Q: And the IC50 [2]?
A: ≥ 10000 nM

Q: And the EC50 [3]?
A: < 1000 nM

Q: What does the source list for `NCC1Oc2ccccc2Oc2cccnc21` (single isomer, unassigned) [Compound 59, (S*)-(11H-benzo[2,3][1,4]dioxepino[6,5-b]pyridin-11-yl)methanamine]?
A: IC50 [1, 4]: > 10000 nM; IC50 [2]: ≥ 10000 nM; EC50 [3]: < 1000 nM

Q: Which results are given for `CNCC1Cc2ccccc2Oc2cc(F)ccc21` (single isomer, unassigned) [Compound 3, (R*)-1-(7-fluoro-10,11-dihydrodibenzo[b,f]oxepin-10-yl)-N-methylmethanamine]?
A: IC50 [1, 4]: < 1000 nM; IC50 [2]: 1000 to 10000 nM; EC50 [3]: > 10000 nM

Q: For `C[C@@H]1c2ccccc2Oc2cccnc2[C@@H]1CN` (stereo in doubt) [Compound 112, ((10S*,11S*)-10-methyl-10,11-dihydrobenzo[6,7]oxepino[3,2-b]pyridin-11-yl)methanamine], which IC50 [1, 4] is on record?
A: > 10000 nM

Q: And the IC50 [2]?
A: ≥ 10000 nM

Q: What about the EC50 [3] of the same compound?
A: < 1000 nM

Q: Which IC50 [1, 5] does the source give for `CNCC1Cc2ncccc2Oc2ccc(C#N)cc21` (single isomer, unassigned) [Compound 161, (R*)-10-((methylamino)methyl)-10,11-dihydrobenzo[6,7]oxepino[3,2-b]pyridine-8-carbonitrile] here?
A: 1000 to 10000 nM

Q: And the IC50 [2]?
A: ≥ 10000 nM

Q: And the EC50 [3]?
A: > 10000 nM

Q: With `CNCC1Cc2ccc(Cl)cc2Oc2cccnc21` (single isomer, unassigned) [Compound 126, (S*)-(7-chloro-10,11-dihydrobenzo[6,7]oxepino[3,2-b]pyridin-11-yl)-N-methylmethanamine] as the compound, how does the IC50 [1, 4] read?
A: < 1000 nM

Q: What about the IC50 [2] of the same compound?
A: ≥ 10000 nM

Q: And the EC50 [3]?
A: < 1000 nM

Q: Which results are given for `NCC1Cc2ncc(Cl)cc2Oc2ccccc21` (single isomer, unassigned) [Compound 179, (R*)-(3-chloro-10,11-dihydrobenzo[6,7]oxepino[3,2-b]pyridin-10-yl)methanamine]?
A: IC50 [1, 4]: 1000 to 10000 nM; IC50 [2]: ≥ 10000 nM; EC50 [3]: 1000 to 10000 nM

Q: How did the IC50 [1, 4] turn out when `NCC1Cc2ncc(F)cc2Oc2ccccc21` (single isomer, unassigned) [Compound 39, (R*)-(3-fluoro-10,11-dihydrobenzo[6,7]oxepino[3,2-b]pyridin-10-yl)methanamine] was run?
A: < 1000 nM

Q: What about the IC50 [2] of the same compound?
A: ≥ 10000 nM

Q: And the EC50 [3]?
A: 1000 to 10000 nM

Q: Which IC50 [1, 6] does the source give for `CNCC1Cc2ccc(F)cc2Oc2ccccc21` (single isomer, unassigned) [Compound 91, (S*)-(3-fluoro-10,11-dihydrodibenzo[b,f]oxepin-10-yl)-N-methylmethanamine] here?
A: < 1000 nM

Q: What about the IC50 [2] of the same compound?
A: < 1000 nM

Q: What about the EC50 [3] of the same compound?
A: < 1000 nM

Q: Which results are given for `N#Cc1ccc2c(c1)C(CN)Cc1ncccc1O2` (single isomer, unassigned) [Compound 160, (S*)-10-(aminomethyl)-10,11-dihydrobenzo[6,7]oxepino[3,2-b]pyridine-8-carbonitrile]?
A: IC50 [1, 4]: < 1000 nM; IC50 [2]: 1000 to 10000 nM; EC50 [3]: < 1000 nM

Q: For `NCC1Cc2c(F)cccc2Oc2cccnc21` (single isomer, unassigned) [Compound 136, (S*)-(9-fluoro-10,11-dihydrobenzo[6,7]oxepino[3,2-b]pyridin-11-yl)methanamine], which IC50 [1, 4] is on record?
A: 1000 to 10000 nM

Q: What about the IC50 [2] of the same compound?
A: ≥ 10000 nM

Q: What about the EC50 [3] of the same compound?
A: < 1000 nM

Q: With `NCC1Cc2ccc(Cl)cc2Oc2cccnc21` (single isomer, unassigned) [Compound 125, (R*)-(7-chloro-10,11-dihydrobenzo[6,7]oxepino[3,2-b]pyridin-11-yl)methanamine] as the compound, how does the IC50 [1, 4] read?
A: > 10000 nM

Q: What about the IC50 [2] of the same compound?
A: ≥ 10000 nM

Q: And the EC50 [3]?
A: < 1000 nM

Q: For `NCC1Cc2c(Cl)cccc2Oc2cccnc21` (single isomer, unassigned) [Compound 145, (R*)-(9-chloro-10,11-dihydrobenzo[6,7]oxepino[3,2-b]pyridin-11-yl)methanamine], which IC50 [1, 6] is on record?
A: < 1000 nM

Q: What about the IC50 [2] of the same compound?
A: ≥ 10000 nM

Q: And the EC50 [3]?
A: < 1000 nM

Q: How did the IC50 [1, 4] turn out when `CN(C)CC1Cc2ccccc2Oc2cccnc21` (single isomer, unassigned) [Compound 111, (R*)-1-(10,11-dihydro-benzo[6,7]oxepino[3,2-b]pyridin-11-yl)-N,N-dimethylmethanamine] was run?
A: 1000 to 10000 nM

Q: What about the IC50 [2] of the same compound?
A: ≥ 10000 nM

Q: What about the EC50 [3] of the same compound?
A: < 1000 nM

Q: What does the source list for `CNCC1Cc2cc(C)ccc2Oc2cccnc21` (single isomer, unassigned) [Compound 131, (R*)—N-methyl-1-(8-methyl-10,11-dihydrobenzo[6,7]oxepino[3,2-b]pyridin-11-yl)methanamine]?
A: IC50 [1, 6]: < 1000 nM; IC50 [2]: < 1000 nM; EC50 [3]: < 1000 nM

Q: Which results are given for `CNCC1Cc2ccccc2Oc2ccc(F)cc21` (single isomer, unassigned) [Compound 95, (S*)-(8-fluoro-10,11-dihydrodibenzo[b,f]oxepin-10-yl)-N-methylmethanamine]?
A: IC50 [1, 6]: < 1000 nM; IC50 [2]: 1000 to 10000 nM; EC50 [3]: 1000 to 10000 nM

Q: How did the IC50 [1, 4] turn out when `NCC1Cc2ccccc2Oc2ccc(F)cc21` (single isomer, unassigned) [Compound 92, (R*)-(8-fluoro-10,11-dihydrodibenzo[b,f]oxepin-10-yl)methanamine] was run?
A: < 1000 nM

Q: What about the IC50 [2] of the same compound?
A: ≥ 10000 nM

Q: What about the EC50 [3] of the same compound?
A: < 1000 nM

Q: What does the source list for `NCC1Cc2ccccc2Oc2c(F)cccc21` (single isomer, unassigned) [Compound 101, (S*)-(6-fluoro-10,11-dihydrodibenzo[b,f]oxepin-10-yl)methanamine]?
A: IC50 [1, 4]: > 10000 nM; IC50 [2]: ≥ 10000 nM; EC50 [3]: < 1000 nM

Q: For `NCC1Oc2ccccc2Oc2cccnc21` (single isomer, unassigned) [Compound 60, (R*)-(11H-benzo[2,3][1,4]dioxepino[6,5-b]pyridin-11-yl)methanamine], which IC50 [1, 6] is on record?
A: > 10000 nM

Q: And the IC50 [2]?
A: ≥ 10000 nM

Q: And the EC50 [3]?
A: < 1000 nM

Q: With `CNCC1Cc2ncccc2Oc2ccccc21` (single isomer, unassigned) [Compound 32, (S*)-1-(10,11-dihydrobenzo[6,7]oxepino[3,2-b]pyridin-10-yl)-N-methylmethanamine] as the compound, how does the IC50 [1, 6] read?
A: < 1000 nM

Q: And the IC50 [2]?
A: ≥ 10000 nM

Q: And the EC50 [3]?
A: < 1000 nM
